Among the data in BindingDB's records for PubMed 35080403 (Yunnan University of Chinese Medicine, 2022) are IC50 values, retold here.

The target of the test is Maltase-glucoamylase (Homo sapiens, UniProt O43451). In words: Inhibition of Alpha-glucosidase (unknown origin).

The term IC50 denotes the concentration that inhibits the measured activity by half. Higher therefore signals lower potency.

Sequence of Maltase-glucoamylase (O43451 whole entry): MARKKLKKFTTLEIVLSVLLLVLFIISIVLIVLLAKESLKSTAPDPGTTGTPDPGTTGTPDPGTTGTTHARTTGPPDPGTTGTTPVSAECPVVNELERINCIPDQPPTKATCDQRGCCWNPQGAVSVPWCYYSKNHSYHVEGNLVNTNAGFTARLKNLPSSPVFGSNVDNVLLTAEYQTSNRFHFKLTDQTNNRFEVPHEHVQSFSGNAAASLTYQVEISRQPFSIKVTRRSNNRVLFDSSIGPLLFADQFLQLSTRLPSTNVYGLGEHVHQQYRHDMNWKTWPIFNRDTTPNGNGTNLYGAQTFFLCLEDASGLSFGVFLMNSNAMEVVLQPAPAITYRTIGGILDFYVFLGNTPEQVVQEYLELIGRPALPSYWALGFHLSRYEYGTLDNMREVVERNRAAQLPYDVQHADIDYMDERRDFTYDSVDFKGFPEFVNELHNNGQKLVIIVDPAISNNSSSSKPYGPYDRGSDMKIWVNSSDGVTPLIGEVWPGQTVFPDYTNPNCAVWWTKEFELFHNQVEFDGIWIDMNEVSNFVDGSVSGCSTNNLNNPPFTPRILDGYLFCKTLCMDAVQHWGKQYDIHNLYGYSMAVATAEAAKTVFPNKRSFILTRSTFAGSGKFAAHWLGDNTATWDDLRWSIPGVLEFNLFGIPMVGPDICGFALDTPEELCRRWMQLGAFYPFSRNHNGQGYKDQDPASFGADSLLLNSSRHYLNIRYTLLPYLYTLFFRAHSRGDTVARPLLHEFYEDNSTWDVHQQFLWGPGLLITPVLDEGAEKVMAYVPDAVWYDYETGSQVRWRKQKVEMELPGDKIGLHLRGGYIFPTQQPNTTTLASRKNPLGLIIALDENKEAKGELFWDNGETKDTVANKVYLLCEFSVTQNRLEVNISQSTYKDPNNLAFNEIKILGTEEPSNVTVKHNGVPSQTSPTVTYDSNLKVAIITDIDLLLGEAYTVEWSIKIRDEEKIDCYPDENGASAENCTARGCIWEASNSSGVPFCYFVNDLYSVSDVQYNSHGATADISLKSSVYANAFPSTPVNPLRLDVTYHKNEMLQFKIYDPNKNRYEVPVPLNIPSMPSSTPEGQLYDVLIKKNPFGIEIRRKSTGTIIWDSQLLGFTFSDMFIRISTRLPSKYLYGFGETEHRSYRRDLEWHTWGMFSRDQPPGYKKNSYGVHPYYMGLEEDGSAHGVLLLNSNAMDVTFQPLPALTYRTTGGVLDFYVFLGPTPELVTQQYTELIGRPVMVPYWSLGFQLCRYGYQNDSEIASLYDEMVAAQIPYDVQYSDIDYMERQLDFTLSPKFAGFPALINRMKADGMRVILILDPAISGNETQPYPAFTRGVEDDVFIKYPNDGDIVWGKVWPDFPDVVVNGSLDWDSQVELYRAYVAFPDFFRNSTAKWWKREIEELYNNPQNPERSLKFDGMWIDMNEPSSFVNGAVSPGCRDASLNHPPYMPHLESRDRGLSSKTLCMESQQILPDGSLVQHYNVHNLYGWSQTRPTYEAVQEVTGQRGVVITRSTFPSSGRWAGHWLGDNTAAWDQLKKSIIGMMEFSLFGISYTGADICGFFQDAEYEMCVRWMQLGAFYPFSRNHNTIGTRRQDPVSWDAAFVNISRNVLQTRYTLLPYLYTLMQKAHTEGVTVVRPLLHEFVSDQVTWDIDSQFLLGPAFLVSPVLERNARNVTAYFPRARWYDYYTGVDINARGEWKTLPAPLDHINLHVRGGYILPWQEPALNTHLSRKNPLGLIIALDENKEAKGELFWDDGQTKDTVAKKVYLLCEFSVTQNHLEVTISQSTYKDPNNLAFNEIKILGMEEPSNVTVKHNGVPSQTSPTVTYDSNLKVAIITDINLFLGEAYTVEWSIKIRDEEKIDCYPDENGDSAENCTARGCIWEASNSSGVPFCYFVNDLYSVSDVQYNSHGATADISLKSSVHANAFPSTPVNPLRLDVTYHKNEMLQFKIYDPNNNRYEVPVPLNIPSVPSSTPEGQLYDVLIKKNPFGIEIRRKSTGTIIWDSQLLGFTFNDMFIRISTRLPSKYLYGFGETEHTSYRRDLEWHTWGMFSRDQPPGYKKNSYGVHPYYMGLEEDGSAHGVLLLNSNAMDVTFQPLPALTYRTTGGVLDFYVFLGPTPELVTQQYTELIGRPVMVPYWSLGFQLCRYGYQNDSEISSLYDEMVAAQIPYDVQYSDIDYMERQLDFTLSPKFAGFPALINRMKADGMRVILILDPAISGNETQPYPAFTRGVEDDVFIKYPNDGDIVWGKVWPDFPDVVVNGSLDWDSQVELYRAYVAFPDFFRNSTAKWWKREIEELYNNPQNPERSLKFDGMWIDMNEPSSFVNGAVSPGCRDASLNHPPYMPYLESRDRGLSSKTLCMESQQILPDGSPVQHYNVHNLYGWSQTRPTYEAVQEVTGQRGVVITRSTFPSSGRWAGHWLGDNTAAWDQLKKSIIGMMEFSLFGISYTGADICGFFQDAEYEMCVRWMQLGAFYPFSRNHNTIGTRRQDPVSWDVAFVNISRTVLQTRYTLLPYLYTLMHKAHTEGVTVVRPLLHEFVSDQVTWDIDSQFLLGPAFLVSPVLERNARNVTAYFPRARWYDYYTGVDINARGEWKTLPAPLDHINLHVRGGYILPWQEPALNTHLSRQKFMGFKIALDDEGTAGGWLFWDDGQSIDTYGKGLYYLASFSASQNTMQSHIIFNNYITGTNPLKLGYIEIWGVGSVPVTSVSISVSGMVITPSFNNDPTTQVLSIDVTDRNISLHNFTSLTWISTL

In the case of `CC/C=C\C/C=C\CCC(=O)O[C@@]12[C@H](OC(=O)[C@@H](C)CC)[C@@H](C)[C@@]3(O)[C@@H](C(=O)C(CO)=C[C@]4(O)C(=O)C(C)=C[C@@H]34)[C@@H]1C2(C)C`, the IC50 turned out to be 15.3 µM.
